Drawing on ChEMBL document CHEMBL1127883, “Increased antiviral activity of HIV protease inhibitors of the difluorostatone type bearing (R)-valinol derivatives as novel c-termini” (Bioorg Med Chem Lett, 1994), this text covers IC50, ED50 and CD50 for eleven molecules.

A word on the IC50: it is the concentration at which inhibition is half-maximal.

The first experiment addresses Human immunodeficiency virus type 1 protease (Human immunodeficiency virus 1, UniProt Q72874). The experiment is described as follows: Inhibitory activity was determined against HIV-1 protease.
Conditions: not given
The molecule `CC(C)[C@@H](COCc1ccccc1)NC(=O)C(F)(F)C(=O)C(Cc1ccc(OCc2ccccc2)cc1)NC(=O)[C@H](NC(=O)OCc1ccccc1)C(C)C` (stereo partly drawn) came in with a 50% inhibitory concentration (IC50) of 2 µM.
Consider `CO[C@H](NC(=O)C(F)(F)C(=O)C(Cc1ccc(OCc2ccccc2)cc1)NC(=O)[C@@H](NC(=O)OCc1ccccc1)C(C)C)C(C)C` (stereo partly drawn), for which the IC50 is less than 0.01 µM.
Same read-out and setting: the value for `CC(C)[C@H](NC(=O)OCc1ccccc1)C(=O)NC(Cc1ccc(OCc2ccccc2)cc1)C(=O)C(F)(F)C(=O)N[C@@H](COCc1ccccc1)c1ccccc1` (stereo partly drawn) was 0.001 µM; that for `CC(C)[C@H](COCc1ccccc1)NC(=O)C(F)(F)C(=O)C(Cc1ccc(OCc2ccccc2)cc1)NC(=O)[C@H](NC(=O)OCc1ccccc1)C(C)C` (stereo partly drawn) was 0.06 µM.
The molecule `CC(C)[C@H](CCc1ccccc1)NC(=O)C(F)(F)C(=O)C(Cc1ccc(OCc2ccccc2)cc1)NC(=O)[C@@H](NC(=O)OCc1ccccc1)C(C)C` (stereo partly drawn) yielded an IC50 of 0.013 µM.
The same measure, in the same setting: the result for `CC(C)C(C=O)NC(=O)C(F)(F)C(=O)C(Cc1ccc(OCc2ccccc2)cc1)NC(=O)[C@@H](NC(=O)OCc1ccccc1)C(C)C` (stereo partly drawn) reads 0.004 µM; that for `CC(C)[C@H](NC(=O)OCc1ccccc1)C(=O)NC(Cc1ccc(OCc2ccccc2)cc1)C(=O)C(F)(F)C(=O)N[C@H](COCc1ccccc1)C(C)C` (stereo partly drawn), 0.04 µM; that for `CC(C)C[C@H](COCc1ccccc1)NC(=O)C(F)(F)C(=O)C(Cc1ccc(OCc2ccccc2)cc1)NC(=O)[C@@H](NC(=O)OCc1ccccc1)C(C)C` (stereo partly drawn), 0.0018 µM.

The next experiment has as its target Human immunodeficiency virus type 1 protease (Human immunodeficiency virus 1) (UniProt Q72874). The experiment is described as follows: Concentration that inhibits cellular growth of MT-4 cells acutely infected with HIV-1 RFstrain by 50%. Format: functional, cell-based. Particulars: MT4.
Consider `CC(C)[C@H](NC(=O)OCc1ccccc1)C(=O)NC(Cc1ccc(OCc2ccccc2)cc1)C(=O)C(F)(F)C(=O)NCc1ccccc1` (stereo partly drawn), for which the ED50 came to 0.3 µM.
The same measure, in the same setting: the result for `CO[C@H](NC(=O)C(F)(F)C(=O)C(Cc1ccc(OCc2ccccc2)cc1)NC(=O)[C@@H](NC(=O)OCc1ccccc1)C(C)C)C(C)C` (stereo partly drawn) reads less than 0.01 µM.
In turn, `CC(C)[C@H](NC(=O)OCc1ccccc1)C(=O)NC(Cc1ccc(OCc2ccccc2)cc1)C(=O)C(F)(F)C(=O)N[C@@H](COCc1ccccc1)c1ccccc1` (stereo partly drawn) had an ED50 of 0.09 µM.
Take `CC(C)(C)NC(=O)[C@@H]1C[C@@H]2CCCC[C@@H]2CN1C[C@@H](O)[C@H](Cc1ccccc1)NC(=O)[C@H](CC(N)=O)NC(=O)c1ccc2ccccc2n1`: the ED50 was determined as 0.006 µM.
The same measure, in the same setting: the result for `CC(C)[C@H](COCc1ccccc1)NC(=O)C(F)(F)C(=O)C(Cc1ccc(OCc2ccccc2)cc1)NC(=O)[C@H](NC(=O)OCc1ccccc1)C(C)C` (stereo partly drawn) reads more than 95 µM; that for `CC(C)[C@H](CCc1ccccc1)NC(=O)C(F)(F)C(=O)C(Cc1ccc(OCc2ccccc2)cc1)NC(=O)[C@@H](NC(=O)OCc1ccccc1)C(C)C` (stereo partly drawn), 0.24 µM; that for `CC(C)C(C=O)NC(=O)C(F)(F)C(=O)C(Cc1ccc(OCc2ccccc2)cc1)NC(=O)[C@@H](NC(=O)OCc1ccccc1)C(C)C` (stereo partly drawn), 0.018 µM.
Still for that read-out and setting: the result for `Cc1cn([C@H]2C[C@H](N=[N+]=[N-])[C@@H](CO)O2)c(=O)[nH]c1=O` reads 0.06 µM.
In turn, `CC(C)[C@H](NC(=O)OCc1ccccc1)C(=O)NC(Cc1ccc(OCc2ccccc2)cc1)C(=O)C(F)(F)C(=O)N[C@H](COCc1ccccc1)C(C)C` (stereo partly drawn) gave an ED50 of 0.35 µM.
Still for that read-out and setting: the result for `CC(C)C[C@H](COCc1ccccc1)NC(=O)C(F)(F)C(=O)C(Cc1ccc(OCc2ccccc2)cc1)NC(=O)[C@@H](NC(=O)OCc1ccccc1)C(C)C` (stereo partly drawn) reads 0.2 µM.

System in another experiment: not listed separately
Description: Cytotoxic activity was determined against HIV-1 infected MT-4 cells. It counts as functional, cell-based. Particulars: MT4.
`CC(C)[C@H](NC(=O)OCc1ccccc1)C(=O)NC(Cc1ccc(OCc2ccccc2)cc1)C(=O)C(F)(F)C(=O)NCc1ccccc1` (stereo partly drawn): the CD50 was more than 100 µM.
On to `CO[C@H](NC(=O)C(F)(F)C(=O)C(Cc1ccc(OCc2ccccc2)cc1)NC(=O)[C@@H](NC(=O)OCc1ccccc1)C(C)C)C(C)C` (stereo partly drawn), for which the CD50 was found to be 8 µM.
`CC(C)[C@H](NC(=O)OCc1ccccc1)C(=O)NC(Cc1ccc(OCc2ccccc2)cc1)C(=O)C(F)(F)C(=O)N[C@@H](COCc1ccccc1)c1ccccc1` (stereo partly drawn) registered a CD50 of 23 µM.
Regarding `CC(C)(C)NC(=O)[C@@H]1C[C@@H]2CCCC[C@@H]2CN1C[C@@H](O)[C@H](Cc1ccccc1)NC(=O)[C@H](CC(N)=O)NC(=O)c1ccc2ccccc2n1`, the CD50 is more than 10 µM.
As to `CC(C)[C@H](COCc1ccccc1)NC(=O)C(F)(F)C(=O)C(Cc1ccc(OCc2ccccc2)cc1)NC(=O)[C@H](NC(=O)OCc1ccccc1)C(C)C` (stereo partly drawn), the CD50 turned out to be 95 µM.
As to `CC(C)[C@H](CCc1ccccc1)NC(=O)C(F)(F)C(=O)C(Cc1ccc(OCc2ccccc2)cc1)NC(=O)[C@@H](NC(=O)OCc1ccccc1)C(C)C` (stereo partly drawn), the CD50 amounted to 35 µM.
The same measure, in the same setting: the result for `CC(C)C(C=O)NC(=O)C(F)(F)C(=O)C(Cc1ccc(OCc2ccccc2)cc1)NC(=O)[C@@H](NC(=O)OCc1ccccc1)C(C)C` (stereo partly drawn) reads 3.2 µM; that for `Cc1cn([C@H]2C[C@H](N=[N+]=[N-])[C@@H](CO)O2)c(=O)[nH]c1=O`, more than 10 µM.
On the same count and under the same terms, the value for `CC(C)[C@H](NC(=O)OCc1ccccc1)C(=O)NC(Cc1ccc(OCc2ccccc2)cc1)C(=O)C(F)(F)C(=O)N[C@H](COCc1ccccc1)C(C)C` (stereo partly drawn) was 35 µM; that for `CC(C)C[C@H](COCc1ccccc1)NC(=O)C(F)(F)C(=O)C(Cc1ccc(OCc2ccccc2)cc1)NC(=O)[C@@H](NC(=O)OCc1ccccc1)C(C)C` (stereo partly drawn) was 15 µM.
